# From paper PMC12238723, “Phase I Clinical Trial of CVL218, a Novel PARP1/2 Inhibitor, in Patients with Advanced Solid Tumors” (MedComm, 2025)
# Test system: patients with advanced solid tumors
# Assay: Treatment-related adverse events (CTCAE v5.0), phase I dose escalation
# Assay type: in vivo
# Excerpt: This study was a single‐arm, dose‐escalation phase I trial conducted in Sun Yat‐sen University Cancer Center in China. This study assessed CVL218 in patients with histologically or cytologically confirmed advanced solid tumors who were in PD after standard therapeutic regimens or lacked standard treatment options. Inclusion criteria included: age 18–75 years; with at least one measurable and evaluable target lesion per Response Evaluation Criteria in Solid Tumors 1.1 (RECIST 1.1); ECOG performance status of 0 or 1; adequate hematological, renal, cardiac, and hepatic functions and a life expectancy ≥12 weeks. Key exclusion criteria included prior usage of PARP inhibitors; allergic to the research drug or its components; with active, unstable systemic diseases or active, uncontrolled infection; a history of other malignancies within 5 years, and pregnant or lactating women.
# CVL218 was administered orally, and this dose‐escalation trial included nine dose levels: 100 mg QD (50 mg BID), 200 mg QD (100 mg BID), 400 mg QD (200 mg BID), 700 mg QD (350 mg BID), 1000 mg QD (500 mg BID), 1200 mg QD (600 mg BID), 1400 mg QD (700 mg BID), 1700 mg QD (850 mg BID), and 2000 mg QD (1000 mg BID). Patients enrolled in the study received a single oral dose on the first day, followed by continuous multiple dosing (twice a day taking 12 h apart) after 72 h, with the treatment cycle lasting 4 weeks. The period during which patients received a single dose is designated as cycle 0 (C0), lasting 72 h. After this period, patients begin multiple dosing, referred to as cycle 1 (C1). An initial accelerated titration design was employed for the three lowest dose groups, and the “3+3” design was applied starting with the 300 mg BID cohort.
# The primary objectives were to assess safety and tolerability as well as to determine the MTD, DLT, and dose recommended for further study. DLT was defined as any of the following events occurring during cycle 0 (including 72 h wash‐out period after a single dose) and cycle 1 per Common Terminology Criteria for Adverse Events (CTCAE) version 5.0: grade 4 anemia; grade 4 neutropenia; grade 3 neutropenia with fever ≥38.5°C; grade 4 thrombocytopenia; grade 3 thrombocytopenia associated with bleeding; grade ≥2 neurotoxicity; any other grade ≥3 nonhematological toxicities (excluding alopecia). The secondary objectives were to assess the PK and preliminary efficacy of CVL218.
# Subjects who received at least one dose of CVL218 with postadministration safety records were included in safety analysis set. Subjects who received at least one dose of CVL218 with at least one evaluable PK parameter were included in PK analysis set. Per‐protocol set were used for efficacy analysis. Descriptive statistics of safety were presented per CTCAE v5.0. The PK parameters T max and T 1/2 were shown as the median (min, max) and mean ± SD, respectively. A two‐sided p < 0.05 was considered to indicate statistical significance. Statistical analysis was performed by using GraphPad prism 8.0.2 and R‐4.3.3.
structure (smiles),measurement,setting,value
CNCc1ccc(-c2cc3cc(F)cc(C(N)=O)c3o2)cc1.Cl [CVL218],Headache,"200 mg BID, ≥G3",0 n (%)
same,Hypoalbuminemia,"200 mg BID, ≥G3",0 n (%)
same,Infusion site pain,"200 mg BID, ≥G3",0 n (%)
same,Laboratory test disorders,"200 mg BID, ≥G3",0 n (%)
same,Limb discomfort,"200 mg BID, ≥G3",0 n (%)
same,Lipase increased,"200 mg BID, ≥G3",0 n (%)
same,Metabolic disorders,"200 mg BID, ≥G3",0 n (%)
same,Musculoskeletal discomfort,"200 mg BID, ≥G3",0 n (%)
same,Musculoskeletal disorders,"200 mg BID, ≥G3",0 n (%)
same,Nausea,"200 mg BID, ≥G3",0 n (%)
same,Nervous system disorders,"200 mg BID, ≥G3",0 n (%)
same,Neutrophil count decreased,"200 mg BID, ≥G3",0 n (%)
same,Neutrophil count increased,"200 mg BID, ≥G3",0 n (%)
same,Palpitations,"200 mg BID, ≥G3",0 n (%)
same,Protein urine present,"200 mg BID, ≥G3",0 n (%)
same,Proteinuria,"200 mg BID, ≥G3",0 n (%)
same,Rash,"200 mg BID, ≥G3",0 n (%)
same,Renal & urinary disorders,"200 mg BID, ≥G3",0 n (%)
same,Renal failure,"200 mg BID, ≥G3",0 n (%)
same,Reproductive disorders,"200 mg BID, ≥G3",0 n (%)
same,Skin disorders,"200 mg BID, ≥G3",0 n (%)
same,Urinary occult blood positive,"200 mg BID, ≥G3",0 n (%)
same,Vomiting,"200 mg BID, ≥G3",0 n (%)
same,WBC count decreased,"200 mg BID, ≥G3",0 n (%)
same,WBC count increased,"200 mg BID, ≥G3",0 n (%)
same,Infusion site pain,"350 mg BID, ALL",0 n (%)
same,WBC count increased,"350 mg BID, ALL",0 n (%)
same,ALT increased,"350 mg BID, ≥G3",0 n (%)
same,AST increased,"350 mg BID, ≥G3",0 n (%)
same,Abdominal distension,"350 mg BID, ≥G3",0 n (%)
same,Abdominal pain,"350 mg BID, ≥G3",0 n (%)
same,Abdominal pain upper,"350 mg BID, ≥G3",0 n (%)
same,Amylase increased,"350 mg BID, ≥G3",0 n (%)
same,Anemia,"350 mg BID, ≥G3",0 n (%)
same,Any AE related to study drug,"350 mg BID, ≥G3",0 n (%)
same,Asthenia,"350 mg BID, ≥G3",0 n (%)
same,Blood creatinine increased,"350 mg BID, ≥G3",0 n (%)
same,Blood system disorders,"350 mg BID, ≥G3",0 n (%)
same,Blood triglycerides increased,"350 mg BID, ≥G3",0 n (%)
same,Blood urea increased,"350 mg BID, ≥G3",0 n (%)
same,Cardiac disorders,"350 mg BID, ≥G3",0 n (%)
same,Chest discomfort,"350 mg BID, ≥G3",0 n (%)
same,Constipation,"350 mg BID, ≥G3",0 n (%)
same,Decreased appetite,"350 mg BID, ≥G3",0 n (%)
same,Diarrhea,"350 mg BID, ≥G3",0 n (%)
same,Dizziness,"350 mg BID, ≥G3",0 n (%)
same,Erectile dysfunction,"350 mg BID, ≥G3",0 n (%)
same,Gastrointestinal disorders,"350 mg BID, ≥G3",0 n (%)
same,General disorders,"350 mg BID, ≥G3",0 n (%)
same,Gingival bleeding,"350 mg BID, ≥G3",0 n (%)
same,Granulocyte count increased,"350 mg BID, ≥G3",0 n (%)
same,Headache,"350 mg BID, ≥G3",0 n (%)
same,Hypoalbuminemia,"350 mg BID, ≥G3",0 n (%)
same,Infusion site pain,"350 mg BID, ≥G3",0 n (%)
same,Laboratory test disorders,"350 mg BID, ≥G3",0 n (%)
same,Limb discomfort,"350 mg BID, ≥G3",0 n (%)
same,Lipase increased,"350 mg BID, ≥G3",0 n (%)
same,Metabolic disorders,"350 mg BID, ≥G3",0 n (%)
same,Musculoskeletal discomfort,"350 mg BID, ≥G3",0 n (%)
same,Musculoskeletal disorders,"350 mg BID, ≥G3",0 n (%)
same,Nausea,"350 mg BID, ≥G3",0 n (%)
same,Nervous system disorders,"350 mg BID, ≥G3",0 n (%)
same,Neutrophil count decreased,"350 mg BID, ≥G3",0 n (%)
same,Neutrophil count increased,"350 mg BID, ≥G3",0 n (%)
same,Palpitations,"350 mg BID, ≥G3",0 n (%)
same,Protein urine present,"350 mg BID, ≥G3",0 n (%)
same,Proteinuria,"350 mg BID, ≥G3",0 n (%)
same,Rash,"350 mg BID, ≥G3",0 n (%)
same,Renal & urinary disorders,"350 mg BID, ≥G3",0 n (%)
same,Renal failure,"350 mg BID, ≥G3",0 n (%)
same,Reproductive disorders,"350 mg BID, ≥G3",0 n (%)
same,Skin disorders,"350 mg BID, ≥G3",0 n (%)
same,Urinary occult blood positive,"350 mg BID, ≥G3",0 n (%)
same,Vomiting,"350 mg BID, ≥G3",0 n (%)
same,WBC count decreased,"350 mg BID, ≥G3",0 n (%)
same,WBC count increased,"350 mg BID, ≥G3",0 n (%)
same,Infusion site pain,"500 mg BID, ALL",0 n (%)
same,WBC count increased,"500 mg BID, ALL",1 (25) n (%)
same,ALT increased,"500 mg BID, ≥G3",0 n (%)
same,AST increased,"500 mg BID, ≥G3",0 n (%)
same,Abdominal distension,"500 mg BID, ≥G3",0 n (%)
same,Abdominal pain,"500 mg BID, ≥G3",0 n (%)
same,Abdominal pain upper,"500 mg BID, ≥G3",0 n (%)
same,Amylase increased,"500 mg BID, ≥G3",0 n (%)
same,Anemia,"500 mg BID, ≥G3",0 n (%)
same,Any AE related to study drug,"500 mg BID, ≥G3",1 (25.0) n (%)
same,Asthenia,"500 mg BID, ≥G3",0 n (%)
same,Blood creatinine increased,"500 mg BID, ≥G3",0 n (%)
same,Blood system disorders,"500 mg BID, ≥G3",0 n (%)
same,Blood triglycerides increased,"500 mg BID, ≥G3",0 n (%)
same,Blood urea increased,"500 mg BID, ≥G3",0 n (%)
same,Cardiac disorders,"500 mg BID, ≥G3",0 n (%)
same,Chest discomfort,"500 mg BID, ≥G3",0 n (%)
same,Constipation,"500 mg BID, ≥G3",0 n (%)
same,Decreased appetite,"500 mg BID, ≥G3",0 n (%)
same,Diarrhea,"500 mg BID, ≥G3",0 n (%)
same,Dizziness,"500 mg BID, ≥G3",0 n (%)
same,Erectile dysfunction,"500 mg BID, ≥G3",0 n (%)
same,Gastrointestinal disorders,"500 mg BID, ≥G3",0 n (%)
same,General disorders,"500 mg BID, ≥G3",0 n (%)
same,Gingival bleeding,"500 mg BID, ≥G3",0 n (%)
same,Granulocyte count increased,"500 mg BID, ≥G3",0 n (%)
same,Headache,"500 mg BID, ≥G3",0 n (%)
same,Hypoalbuminemia,"500 mg BID, ≥G3",0 n (%)
same,Infusion site pain,"500 mg BID, ≥G3",0 n (%)
same,Limb discomfort,"500 mg BID, ≥G3",0 n (%)
same,Metabolic disorders,"500 mg BID, ≥G3",0 n (%)
same,Musculoskeletal discomfort,"500 mg BID, ≥G3",0 n (%)
same,Musculoskeletal disorders,"500 mg BID, ≥G3",0 n (%)
same,Nausea,"500 mg BID, ≥G3",0 n (%)
same,Nervous system disorders,"500 mg BID, ≥G3",0 n (%)
same,Neutrophil count decreased,"500 mg BID, ≥G3",0 n (%)
same,Neutrophil count increased,"500 mg BID, ≥G3",0 n (%)
same,Palpitations,"500 mg BID, ≥G3",0 n (%)
same,Protein urine present,"500 mg BID, ≥G3",0 n (%)
same,Proteinuria,"500 mg BID, ≥G3",0 n (%)
same,Rash,"500 mg BID, ≥G3",0 n (%)
same,Renal & urinary disorders,"500 mg BID, ≥G3",0 n (%)
same,Renal failure,"500 mg BID, ≥G3",0 n (%)
same,Reproductive disorders,"500 mg BID, ≥G3",0 n (%)
same,Skin disorders,"500 mg BID, ≥G3",0 n (%)
same,Urinary occult blood positive,"500 mg BID, ≥G3",0 n (%)
same,Vomiting,"500 mg BID, ≥G3",0 n (%)
same,WBC count decreased,"500 mg BID, ≥G3",0 n (%)
same,WBC count increased,"500 mg BID, ≥G3",0 n (%)
same,Infusion site pain,"600 mg BID, ALL",0 n (%)
same,WBC count increased,"600 mg BID, ALL",0 n (%)
same,ALT increased,"600 mg BID, ≥G3",0 n (%)
same,AST increased,"600 mg BID, ≥G3",0 n (%)
